Activity calls are given as the source filed them.
What was measured:
SUMO-activating enzyme [1] = target: T1, SUMO-activating enzyme (Homo sapiens, UniProt Q9UBT2); assay: blockers of UBC9-mediated SUMO conjugation – biochemical, AlphaScreen, SUMOylation inhibitor project, confirmation (AID 2018); assay type: functional
SUMO-activating enzyme [2] = target: T1, SUMO-activating enzyme; assay: blockers of SAE1/SAE2–UBC9 SUMO transfer – biochemical, HTRF, uHTS, primary screen (AID 2006); assay type: protein-complex assay
[3] = target: T2, C-C chemokine receptor type 6 (Homo sapiens, UniProt P51684); assay: antagonism of CCR6 beta-arrestin recruitment – cell-based, luminescent beta-arrestin readout, dose response (AID 504728); assay type: functional
T2 sequence (P51684 whole entry): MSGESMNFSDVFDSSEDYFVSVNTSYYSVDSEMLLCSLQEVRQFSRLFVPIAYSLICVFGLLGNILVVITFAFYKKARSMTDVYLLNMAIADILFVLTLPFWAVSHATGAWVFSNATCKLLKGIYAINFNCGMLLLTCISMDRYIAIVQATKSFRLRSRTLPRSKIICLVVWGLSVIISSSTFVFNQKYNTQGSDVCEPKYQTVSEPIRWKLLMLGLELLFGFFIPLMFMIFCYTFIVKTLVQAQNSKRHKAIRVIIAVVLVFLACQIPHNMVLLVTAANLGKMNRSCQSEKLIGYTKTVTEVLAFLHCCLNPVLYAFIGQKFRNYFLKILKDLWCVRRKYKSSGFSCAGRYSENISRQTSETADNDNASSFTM

Beta-galactosidase = Beta-galactosidase (Escherichia coli, UniProt Q8VNN2); assay: detection-enzyme interference by beta-gal modulators – biochemical, E. coli enzyme, set 3, artefact control for CCR6 antagonist project, dose response (AID 504712); assay type: functional
[4] = target: Peroxisome proliferator-activated receptor gamma/Nuclear receptor coactivator 1 (Homo sapiens, UniProt P37231); assay: TR-FRET dose response biochemical High Throughput Screening assay for agonists of the steroid receptor coactivator 1 (SRC-1) recruitment by the peroxisome proliferator-activated receptor gamma (PPAR gamma): non-selective agonists. [Related pubchem assays (depositor defined):AID1300, AID1808, AID504735, AID631]; assay type: protein assay
[5] = target: Peroxisome proliferator-activated receptor gamma/Nuclear receptor coactivator 3 (Homo sapiens, UniProt P37231); assay: TR-FRET dose response biochemical High Throughput Screening assay for agonists of the steroid receptor coactivator 3 (SRC-3) recruitment by the peroxisome proliferator-activated receptor gamma (PPAR gamma): non-selective agonists. [Related pubchem assays: 1301 (Confirmation screen.), 1048 (Primary screen.)]; assay type: functional
[6] = target: Peroxisome proliferator-activated receptor gamma/Nuclear receptor coactivator 2 (Homo sapiens, UniProt P37231); assay: TR-FRET dose response biochemical High Throughput Screening assay for agonists of the steroid receptor coactivator 2 (SRC-2) recruitment by the peroxisome proliferator-activated receptor gamma (PPAR gamma): non-selective agonists. [Related pubchem assays: 1297, 1032 ]; assay type: functional
H9c2 = assay: cells; assay type: functional, cell-based; conditions: Rattus norvegicus, H9c2, Myocardium;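 further: confirmatory concentration-response retest of ultra-high-throughput screening hits for modulation of myocardial damage; cell death induced by hydrogen peroxide oxidative stress; compound pretreatment for 60 min then peroxide exposure for 2 h; potency is for protecting the cells against peroxide damage rather than for killing them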
[7] = target: T3, RNA-binding protein pos-1 (Caenorhabditis elegans, UniProt G5EF15); assay: disruptors of C. elegans POS-1 RNA interaction – biochemical, fluorescence polarization, dose response (AID 1964);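 further: purified POS-1 fused to maltose binding protein made in E. coli; potency of compounds blocking POS-1 binding to fluorescent RNA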
T3 sequence (G5EF15 whole entry): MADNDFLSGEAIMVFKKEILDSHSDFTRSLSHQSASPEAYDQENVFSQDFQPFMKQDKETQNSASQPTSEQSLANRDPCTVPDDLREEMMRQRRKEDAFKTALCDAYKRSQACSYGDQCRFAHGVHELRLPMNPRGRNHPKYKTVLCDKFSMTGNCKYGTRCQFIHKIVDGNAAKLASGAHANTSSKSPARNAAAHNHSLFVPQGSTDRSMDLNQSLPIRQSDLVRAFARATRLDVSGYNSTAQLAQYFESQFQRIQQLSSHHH

[8] = target: T4, Zinc finger protein mex-5 (Caenorhabditis elegans, UniProt Q9XUB2); assay: potency of MEX-5 RNA-binding blockers – biochemical, C. elegans, fluorescence polarization, dose response (AID 1960)
T4 sequence (Q9XUB2 whole entry): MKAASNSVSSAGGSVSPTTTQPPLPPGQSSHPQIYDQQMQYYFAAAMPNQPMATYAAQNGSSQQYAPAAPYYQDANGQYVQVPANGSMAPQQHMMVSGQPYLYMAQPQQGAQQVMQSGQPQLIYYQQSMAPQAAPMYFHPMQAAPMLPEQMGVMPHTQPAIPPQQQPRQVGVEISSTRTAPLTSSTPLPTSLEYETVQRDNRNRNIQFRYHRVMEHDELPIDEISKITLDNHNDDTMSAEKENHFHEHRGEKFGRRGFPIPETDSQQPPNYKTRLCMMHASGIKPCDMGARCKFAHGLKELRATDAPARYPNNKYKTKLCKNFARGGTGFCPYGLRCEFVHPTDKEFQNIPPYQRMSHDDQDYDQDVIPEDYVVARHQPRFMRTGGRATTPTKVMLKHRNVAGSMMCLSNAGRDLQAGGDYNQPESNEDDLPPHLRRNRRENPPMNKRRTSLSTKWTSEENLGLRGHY

[9] = target: Intestinal-type alkaline phosphatase (Homo sapiens, UniProt P09923); assay: activation of human intestinal alkaline phosphatase – biochemical, dose response (AID 488873); assay type: functional
[10] = target: T5, Alkaline phosphatase, tissue-nonspecific isozyme (Homo sapiens, UniProt P05186); assay: potency against alkaline phosphatase TNAP – biochemical, luminescent, dose response, SAR follow-up (AID 1056)
T5 sequence (P05186 whole entry): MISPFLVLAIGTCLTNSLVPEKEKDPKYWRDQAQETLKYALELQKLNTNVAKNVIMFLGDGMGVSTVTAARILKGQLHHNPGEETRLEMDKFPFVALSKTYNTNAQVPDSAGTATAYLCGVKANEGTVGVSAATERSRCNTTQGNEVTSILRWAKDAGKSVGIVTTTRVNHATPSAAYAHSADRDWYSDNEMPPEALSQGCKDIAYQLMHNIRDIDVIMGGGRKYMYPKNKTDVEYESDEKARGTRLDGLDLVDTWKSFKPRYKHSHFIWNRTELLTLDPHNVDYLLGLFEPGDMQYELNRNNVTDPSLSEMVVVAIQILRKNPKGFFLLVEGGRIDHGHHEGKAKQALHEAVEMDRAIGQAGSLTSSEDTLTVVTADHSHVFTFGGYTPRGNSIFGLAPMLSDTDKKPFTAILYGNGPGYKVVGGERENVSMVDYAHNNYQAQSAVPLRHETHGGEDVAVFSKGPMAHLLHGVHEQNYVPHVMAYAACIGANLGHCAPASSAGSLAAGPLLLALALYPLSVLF

[11] = target: Intestinal-type alkaline phosphatase (Mus musculus, UniProt P24822); assay: mouse intestinal alkaline phosphatase activators, dose response, biochemical, luminescence, uHTS hits (AID 488783); assay type: functional
[12] = target: T5, Alkaline phosphatase, tissue-nonspecific isozyme; assay: activation of tissue-nonspecific alkaline phosphatase – biochemical, TNAP isozyme, mouse IAP uHTS hits, selectivity assay for mouse IAP activator project, dose response (AID 488880); assay type: functional
[13] = THP-1 cell cytotoxicity, dose response, cytotoxicity control for non-replicating M. tuberculosis project (AID 489025); assay type: functional
Bcl-2-related protein A1 = Bcl-2-related protein A1 (Mus musculus, UniProt Q07440); assay type: functional;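 further: confirmatory dose–response counterscreen on Bfl-1, used to check hits from a UBC13 polyubiquitin inhibitor campaign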
[14] = target: T6, Ubiquitin-conjugating enzyme E2 N (Homo sapiens, UniProt P61088); assay type: functional
T6 sequence (P61088 whole entry): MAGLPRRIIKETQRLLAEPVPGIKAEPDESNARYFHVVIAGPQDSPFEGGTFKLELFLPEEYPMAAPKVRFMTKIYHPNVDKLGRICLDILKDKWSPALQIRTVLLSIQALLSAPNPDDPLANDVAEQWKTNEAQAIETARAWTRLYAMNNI

[15] = target: T6, Ubiquitin-conjugating enzyme E2 N; assay type: functional; remark: listed apart in the source
cells = assay type: functional
[16] = target: T7, High affinity choline transporter 1 (Homo sapiens, UniProt Q9GZV3); assay: human choline transporter blockers, potency – cell-based, 5-point CRC, membrane potential dye, dose response (AID 504840); assay type: functional
T7 sequence (Q9GZV3 whole entry): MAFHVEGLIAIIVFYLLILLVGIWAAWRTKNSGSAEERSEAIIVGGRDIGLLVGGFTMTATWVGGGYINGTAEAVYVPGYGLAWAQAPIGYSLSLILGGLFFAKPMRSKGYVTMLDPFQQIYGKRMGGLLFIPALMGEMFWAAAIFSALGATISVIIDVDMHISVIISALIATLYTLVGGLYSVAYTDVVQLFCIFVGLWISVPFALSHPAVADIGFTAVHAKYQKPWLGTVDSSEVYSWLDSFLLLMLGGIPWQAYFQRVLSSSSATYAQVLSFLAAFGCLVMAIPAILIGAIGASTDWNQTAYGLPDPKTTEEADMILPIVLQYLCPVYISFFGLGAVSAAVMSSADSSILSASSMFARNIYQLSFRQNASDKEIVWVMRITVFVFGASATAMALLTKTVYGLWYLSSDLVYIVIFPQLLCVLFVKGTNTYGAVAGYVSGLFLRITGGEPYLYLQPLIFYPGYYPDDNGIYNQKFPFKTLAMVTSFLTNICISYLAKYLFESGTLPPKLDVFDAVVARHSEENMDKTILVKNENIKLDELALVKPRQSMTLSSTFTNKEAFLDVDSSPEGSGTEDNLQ

[17] = target: Voltage-dependent T-type calcium channel subunit alpha-1H (Homo sapiens, UniProt O95180); assay: human CACNA1H calcium influx blockade – cell-based, synthetic library set 2, HEK293 HH8, Fluo-4, SAR follow-up (AID 493023); assay type: functional
[18] = target: T8, Nucleotide-binding oligomerization domain-containing protein 1 (Homo sapiens, UniProt Q9Y239); assay: SAR analysis of compounds that inhibit NOD1 - Set 3. [Related pubchem assays (depositor defined):AID1566, AID1575, AID1578, AID1849, AID1852, AID2333, AID2335, AID2466]; assay type: functional
T8 sequence (Q9Y239 whole entry): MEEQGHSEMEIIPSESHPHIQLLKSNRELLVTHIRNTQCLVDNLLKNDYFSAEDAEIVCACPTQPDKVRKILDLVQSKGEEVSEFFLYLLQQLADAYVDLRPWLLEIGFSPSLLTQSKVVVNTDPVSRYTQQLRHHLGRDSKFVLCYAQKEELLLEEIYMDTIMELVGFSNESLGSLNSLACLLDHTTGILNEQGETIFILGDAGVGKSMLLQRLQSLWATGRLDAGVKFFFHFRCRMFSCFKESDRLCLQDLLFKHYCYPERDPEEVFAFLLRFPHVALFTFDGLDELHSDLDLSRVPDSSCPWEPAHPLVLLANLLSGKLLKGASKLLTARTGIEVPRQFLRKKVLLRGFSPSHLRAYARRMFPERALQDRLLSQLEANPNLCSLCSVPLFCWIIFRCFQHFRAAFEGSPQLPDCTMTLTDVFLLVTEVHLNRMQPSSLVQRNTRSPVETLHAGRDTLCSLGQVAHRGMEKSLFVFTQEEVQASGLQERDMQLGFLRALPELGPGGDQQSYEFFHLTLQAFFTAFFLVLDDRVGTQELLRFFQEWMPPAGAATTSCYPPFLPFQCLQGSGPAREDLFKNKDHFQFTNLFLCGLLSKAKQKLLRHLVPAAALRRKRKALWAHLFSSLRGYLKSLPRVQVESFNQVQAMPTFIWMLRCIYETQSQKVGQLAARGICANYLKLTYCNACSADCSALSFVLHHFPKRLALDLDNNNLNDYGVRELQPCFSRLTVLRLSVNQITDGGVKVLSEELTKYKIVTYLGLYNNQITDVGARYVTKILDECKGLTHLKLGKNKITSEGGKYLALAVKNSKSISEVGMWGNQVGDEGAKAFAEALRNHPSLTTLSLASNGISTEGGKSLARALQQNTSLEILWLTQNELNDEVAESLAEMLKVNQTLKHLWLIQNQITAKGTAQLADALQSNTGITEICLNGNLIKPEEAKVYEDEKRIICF

Tumor necrosis factor = Tumor necrosis factor (Homo sapiens, UniProt P01375); assay: analog potency on TNFa NF-kB signaling – cell-based, set 3, SAR follow-up (AID 2801); assay type: functional
HEK293 = assay: SAR analysis of compounds that are cytotoxic to HEK293 - Set 3. [Related pubchem assays (depositor defined):AID1575, AID1578, AID1848, AID1849, AID2001, AID2333, AID2334, AID2335, AID2337, AID2469]; assay type: functional, cell-based; conditions: Homo sapiens
[19] = target: Nucleotide-binding oligomerization domain-containing protein 2 (Homo sapiens, UniProt Q9HC29); assay: inhibition of MDP-driven NOD2 NF-kB reporter – cell-based, set 3, SAR follow-up (AID 2799); assay type: functional

T1 sequence (Q9UBE0 whole entry): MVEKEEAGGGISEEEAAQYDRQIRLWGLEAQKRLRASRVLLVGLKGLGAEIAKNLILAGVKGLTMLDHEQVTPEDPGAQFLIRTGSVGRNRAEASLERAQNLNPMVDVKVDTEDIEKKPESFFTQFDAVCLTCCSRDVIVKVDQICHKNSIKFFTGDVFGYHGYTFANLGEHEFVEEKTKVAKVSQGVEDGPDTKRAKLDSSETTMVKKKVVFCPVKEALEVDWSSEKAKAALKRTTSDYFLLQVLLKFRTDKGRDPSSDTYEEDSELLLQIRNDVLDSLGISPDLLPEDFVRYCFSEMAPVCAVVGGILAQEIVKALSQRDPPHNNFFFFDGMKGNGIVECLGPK
T1 sequence (Q9UBT2 whole entry): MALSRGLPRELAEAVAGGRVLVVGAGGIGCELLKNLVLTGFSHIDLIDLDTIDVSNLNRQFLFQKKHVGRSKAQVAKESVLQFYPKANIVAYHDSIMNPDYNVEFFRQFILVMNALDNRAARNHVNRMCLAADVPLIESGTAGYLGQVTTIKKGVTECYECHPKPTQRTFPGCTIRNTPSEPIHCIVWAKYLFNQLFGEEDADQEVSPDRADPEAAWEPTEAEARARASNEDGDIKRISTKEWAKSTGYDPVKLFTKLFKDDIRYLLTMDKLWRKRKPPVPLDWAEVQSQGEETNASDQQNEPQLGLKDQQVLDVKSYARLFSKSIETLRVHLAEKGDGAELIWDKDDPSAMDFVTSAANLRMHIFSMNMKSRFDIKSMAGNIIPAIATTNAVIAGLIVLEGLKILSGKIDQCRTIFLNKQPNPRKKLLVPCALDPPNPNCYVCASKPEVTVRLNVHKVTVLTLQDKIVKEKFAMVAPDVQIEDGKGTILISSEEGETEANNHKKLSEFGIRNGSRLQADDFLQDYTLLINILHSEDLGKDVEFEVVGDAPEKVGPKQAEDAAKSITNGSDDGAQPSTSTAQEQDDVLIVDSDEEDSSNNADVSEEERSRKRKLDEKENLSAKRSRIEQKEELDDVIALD
Chain of Tumor necrosis factor (P01375 whole entry): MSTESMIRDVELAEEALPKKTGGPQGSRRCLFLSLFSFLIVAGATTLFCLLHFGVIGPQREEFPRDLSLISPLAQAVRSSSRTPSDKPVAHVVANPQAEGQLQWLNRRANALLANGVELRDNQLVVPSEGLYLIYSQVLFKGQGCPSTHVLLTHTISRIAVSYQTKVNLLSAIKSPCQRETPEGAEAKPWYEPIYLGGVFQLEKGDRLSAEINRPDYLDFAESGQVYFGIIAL
Chain of Voltage-dependent T-type calcium channel subunit alpha-1H (O95180 whole entry, the tested form may be a part): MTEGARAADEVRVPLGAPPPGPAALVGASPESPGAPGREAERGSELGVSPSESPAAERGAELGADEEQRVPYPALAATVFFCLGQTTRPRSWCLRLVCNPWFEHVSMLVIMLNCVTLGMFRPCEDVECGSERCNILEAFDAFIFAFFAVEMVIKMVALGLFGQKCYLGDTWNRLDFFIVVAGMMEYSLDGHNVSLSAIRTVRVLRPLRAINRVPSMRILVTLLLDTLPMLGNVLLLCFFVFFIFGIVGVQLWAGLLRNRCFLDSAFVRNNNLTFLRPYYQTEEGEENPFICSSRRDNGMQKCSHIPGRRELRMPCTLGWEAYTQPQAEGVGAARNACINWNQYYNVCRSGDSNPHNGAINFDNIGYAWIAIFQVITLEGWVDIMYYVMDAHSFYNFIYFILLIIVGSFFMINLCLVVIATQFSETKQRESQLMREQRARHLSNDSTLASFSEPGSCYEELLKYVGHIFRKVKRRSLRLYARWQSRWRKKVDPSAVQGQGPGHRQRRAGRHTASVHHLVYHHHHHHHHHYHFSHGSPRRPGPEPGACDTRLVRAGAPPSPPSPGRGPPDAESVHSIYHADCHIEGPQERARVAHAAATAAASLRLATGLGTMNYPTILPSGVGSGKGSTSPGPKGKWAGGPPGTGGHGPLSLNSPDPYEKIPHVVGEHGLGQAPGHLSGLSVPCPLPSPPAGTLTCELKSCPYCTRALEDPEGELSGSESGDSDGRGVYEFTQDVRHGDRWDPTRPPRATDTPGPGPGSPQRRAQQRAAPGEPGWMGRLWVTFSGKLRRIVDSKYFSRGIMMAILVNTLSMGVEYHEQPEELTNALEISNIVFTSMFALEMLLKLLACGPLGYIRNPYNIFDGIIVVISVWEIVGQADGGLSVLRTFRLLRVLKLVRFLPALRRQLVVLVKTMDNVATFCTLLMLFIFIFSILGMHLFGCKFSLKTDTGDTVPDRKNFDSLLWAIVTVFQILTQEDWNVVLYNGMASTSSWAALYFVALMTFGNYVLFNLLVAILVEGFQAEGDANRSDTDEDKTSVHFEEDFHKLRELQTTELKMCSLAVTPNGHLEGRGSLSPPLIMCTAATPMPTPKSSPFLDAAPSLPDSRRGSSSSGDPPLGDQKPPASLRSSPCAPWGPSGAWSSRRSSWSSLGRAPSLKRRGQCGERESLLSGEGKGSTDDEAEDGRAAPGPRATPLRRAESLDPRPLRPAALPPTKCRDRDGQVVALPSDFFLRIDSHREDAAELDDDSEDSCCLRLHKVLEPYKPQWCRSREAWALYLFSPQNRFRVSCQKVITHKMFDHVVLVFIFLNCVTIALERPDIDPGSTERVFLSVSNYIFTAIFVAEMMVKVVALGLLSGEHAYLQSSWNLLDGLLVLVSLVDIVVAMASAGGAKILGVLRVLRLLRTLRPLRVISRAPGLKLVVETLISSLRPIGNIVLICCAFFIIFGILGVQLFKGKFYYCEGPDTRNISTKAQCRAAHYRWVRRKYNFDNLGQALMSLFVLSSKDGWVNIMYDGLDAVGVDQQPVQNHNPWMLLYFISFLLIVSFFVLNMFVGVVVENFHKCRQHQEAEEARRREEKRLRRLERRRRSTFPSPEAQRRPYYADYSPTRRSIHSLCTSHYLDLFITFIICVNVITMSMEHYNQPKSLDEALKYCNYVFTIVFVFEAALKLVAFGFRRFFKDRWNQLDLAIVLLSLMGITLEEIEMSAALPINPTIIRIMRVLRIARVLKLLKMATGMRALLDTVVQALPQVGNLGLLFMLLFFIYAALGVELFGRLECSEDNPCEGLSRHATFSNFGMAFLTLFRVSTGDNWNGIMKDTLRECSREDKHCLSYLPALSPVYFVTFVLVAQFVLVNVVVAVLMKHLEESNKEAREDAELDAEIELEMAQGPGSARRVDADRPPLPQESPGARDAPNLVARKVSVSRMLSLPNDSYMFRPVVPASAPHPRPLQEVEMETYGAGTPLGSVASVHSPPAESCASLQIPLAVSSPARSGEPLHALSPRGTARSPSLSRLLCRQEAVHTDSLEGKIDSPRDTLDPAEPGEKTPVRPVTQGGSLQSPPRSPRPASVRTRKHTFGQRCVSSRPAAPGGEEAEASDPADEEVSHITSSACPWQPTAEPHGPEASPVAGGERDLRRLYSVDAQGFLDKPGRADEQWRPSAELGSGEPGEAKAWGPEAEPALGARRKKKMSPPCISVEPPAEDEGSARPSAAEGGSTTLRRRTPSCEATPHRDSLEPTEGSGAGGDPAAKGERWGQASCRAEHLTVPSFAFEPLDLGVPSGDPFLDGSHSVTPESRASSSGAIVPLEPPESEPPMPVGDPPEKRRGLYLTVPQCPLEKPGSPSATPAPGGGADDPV
Chain of Beta-galactosidase (Q8VNN2 whole entry): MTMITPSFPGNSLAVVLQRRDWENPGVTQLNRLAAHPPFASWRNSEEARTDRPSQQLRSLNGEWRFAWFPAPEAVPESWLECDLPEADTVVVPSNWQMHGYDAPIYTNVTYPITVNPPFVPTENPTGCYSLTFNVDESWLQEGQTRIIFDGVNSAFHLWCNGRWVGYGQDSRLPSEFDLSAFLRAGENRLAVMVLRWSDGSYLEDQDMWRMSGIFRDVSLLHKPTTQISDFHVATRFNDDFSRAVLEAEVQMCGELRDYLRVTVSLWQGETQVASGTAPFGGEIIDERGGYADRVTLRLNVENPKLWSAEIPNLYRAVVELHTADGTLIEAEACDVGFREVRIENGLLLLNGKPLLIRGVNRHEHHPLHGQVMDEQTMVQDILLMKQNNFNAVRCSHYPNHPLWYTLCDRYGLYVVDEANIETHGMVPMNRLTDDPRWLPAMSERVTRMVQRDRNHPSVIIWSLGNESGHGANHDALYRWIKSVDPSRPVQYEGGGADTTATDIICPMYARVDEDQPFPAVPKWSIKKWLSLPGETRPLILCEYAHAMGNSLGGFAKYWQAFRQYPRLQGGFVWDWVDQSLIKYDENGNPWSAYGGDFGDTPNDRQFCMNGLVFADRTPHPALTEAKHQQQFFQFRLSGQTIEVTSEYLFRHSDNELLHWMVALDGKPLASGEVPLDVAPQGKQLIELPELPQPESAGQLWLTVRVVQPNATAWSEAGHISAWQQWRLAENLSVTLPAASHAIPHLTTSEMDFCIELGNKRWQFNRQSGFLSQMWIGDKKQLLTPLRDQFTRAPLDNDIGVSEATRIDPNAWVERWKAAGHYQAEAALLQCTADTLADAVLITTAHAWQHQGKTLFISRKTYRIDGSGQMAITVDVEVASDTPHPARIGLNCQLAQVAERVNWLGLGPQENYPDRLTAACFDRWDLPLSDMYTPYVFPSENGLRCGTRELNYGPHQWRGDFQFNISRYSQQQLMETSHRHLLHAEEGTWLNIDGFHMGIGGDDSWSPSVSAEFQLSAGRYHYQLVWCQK
Chain of Bcl-2-related protein A1 (Q07440 whole entry): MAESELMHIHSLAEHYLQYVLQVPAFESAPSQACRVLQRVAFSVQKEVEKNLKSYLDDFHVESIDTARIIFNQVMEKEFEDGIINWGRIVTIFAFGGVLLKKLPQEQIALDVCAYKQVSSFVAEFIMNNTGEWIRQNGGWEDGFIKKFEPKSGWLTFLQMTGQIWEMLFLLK

N#C/C(=C\c1ccc(-c2ccc([N+](=O)[O-])cc2)o1)C(=O)Nc1nc(-c2cccs2)cs1
IC50 (SUMO-activating enzyme [1]): 18.2 µM (active)
IC50 (SUMO-activating enzyme [2]): 8.52 µM (active)
IC50 [3]: > 66.6 µM (inactive)
IC50 (Beta-galactosidase): > 66.6 µM (inactive)

O=C(Nc1cccnc1)c1sc(Nc2ccccc2)nc1-c1ccccc1
EC50 [4]: 2.72 µM (active)
EC50 [5]: 40 µM (not active)
EC50 [6]: 3.26 µM (active)
IC50 (H9c2): > 79 µM (inactive)

COc1ccc(OC)c(S(=O)(=O)Nc2ccc(O)c(Sc3nc[nH]n3)c2)c1
EC50 [7]: 11.5 µM (active)
EC50 [8]: 17.7 µM (inconclusive)
EC50 [9]: 74.7 µM (active)
IC50 [10]: 13.1 µM (active)
EC50 [11]: 66.9 µM (active)
EC50 [12]: 62.1 µM (active)

COc1ccc(C(CNC(=O)c2cccc(NS(=O)(=O)c3ccc(C)c(F)c3)c2)N2CCCC2)cc1 (stereo not given)
CC50 [13]: > 40 µM (active)
IC50 (Bcl-2-related protein A1): > 20 µM (inactive)
IC50 [14]: 15.3 µM (active)
IC50 [15]: 11.7 µM (active)
IC50 (cells): 38 µM (active)
IC50 [16]: 15.8 µM (active)

CC(C)(C)CCN1CC2CCC(NC(=O)c3ccc(Cl)cc3Cl)C2C1 (stereo not given)
EC50 [17]: 0.36 µM (active)

Nc1nc2ccccc2n1S(=O)(=O)c1ccc(OC(F)(F)F)cc1
IC50 [18]: 8.94 µM (active)
IC50 (Tumor necrosis factor): > 20 µM (inactive)
IC50 (HEK293): > 20 µM (inactive)
IC50 [19]: > 20 µM (inactive)
